The test system of one data set is healthy animals / mice. The settings on record: i.v.; cited from earlier work.
Data set [1] can be described thus: Antimicrobial activity of the labelled peptide (data not shown). In kind it is cell-based.
Data set [2] has as its system Salmonella enterica serovar Typhimurium ATCC 14028. The experiment in a line: Killing kinetics assay (bactericidal activity) in the presence of biological fluids. In kind it is cell-based. The settings on record: for reduction of the number of CFU: 10 μM peptide, 1 h incubation, 37°C. The method, then: Murine plasma obtained using 2% (v/v) Na-citrate as an anticoagulant, and serum were prepared and stored at -20°C until use. The bactericidal activity of Bac7(1-35) against Salmonella enterica serovar Typhimurium ATCC 14028 was determined by a killing kinetics assay. Mid-logarithmic phase S. enterica cultures were diluted in murine serum or plasma (66% v/v final concentration) or BSA (40 mg/mL) (Sigma) to give approximately 1 × 10^6 cells/ml, and incubated with 10 μM Bac7(1-35) in a shaking water bath at 37°C for different times. Samples were withdrawn, diluted and plated to allow colony counts.

The nature of the next data set: in vitro. The method, then:
Bac7(1-35) peptide (50 μg) was incubated in 250 μL of PBS containing 25% (v/v) of murine serum or plasma at 37°C. At different time intervals (0, 1, 2, 4, 8 and 24 h), aliquots of 25 μL (corresponding to 5 μg of peptide) were added to 65 μL of cold 0.5% (v/v) TFA in H2O, kept on ice for 5 min and than centrifuged at 10.000 × g for 5 min. The LC-MS analysis of supernatants were carried out as described, using a standard curve to calculate the peptide concentration.

The subject of the next data set is Balb/c and CBA/Ca mice. As to the kind of experiment: In vivo toxicity after single i.p. injection. On the set-up: species or system mouse. The method, then: The in vivo toxicity of Bac7(1-35) was investigated by injecting mice via i.p. with increasing amounts of the peptide dissolved in apyrogen PBS (0.2 ml per mouse). The controls received the vehicle alone. Animal behavior and survival were monitored over a 14-day period.

Data set [3] deals with S. typhimurium ATCC 14028 infection in CBA/Ca mice. As to the kind of experiment: Mouse model of typhoid fever, survival. The data set is classed as in vivo. The method, then: Inocula containing 10^2 CFU/mouse of S. enterica ATCC 14028, expected to result in 90-100% mortality in 4-6 days for Balb/c and 10-18 days for CBA/Ca, were prepared by diluting log-phase bacterial cultures in sterile PBS. Ten mice were infected intraperitoneally and monitored for survival over a 60-day period after infection. Test peptide (30 mg/kg) was injected via i.p. after bacterial challenge. The choice of dose was based on preliminary data obtained with lower doses (data not shown) and on results reported in the literature for structurally similar peptides. Control mice were given 0.2 ml of PBS. […] The analysis of survival curves was conducted using the Kaplan-Meyer method and successive statistical evaluation by the Logrank test. Significance of percentage differences among groups was assessed by using the Fisher exact test. Values of p < 0.05 were considered statistically significant.

Data set [4] concerns S. enterica ATCC 14028 in liver and spleen of CBA/Ca mice. As to the kind of experiment: Viable colony counts in murine liver and spleen homogenates. The data set is classed as in vivo, mouse. The following applies: 30 mg/kg i.p., 3 days post-inoculation. How it is done: Three days after bacterial infection, a group of 3 untreated and 3 peptide-treated mice were killed by cervical dislocation, and liver and spleen were removed. The organs were weighed, homogenized separately and dissolved in PBS. Suitable dilutions of 50 μL of the homogenate in PBS were plated in duplicate on Mueller-Hinton agar (Difco). The plates were then incubated at 37°C overnight to allow colony counts. Results are expressed as number of CFU/g of organ. This assay was repeated two fold.

For data set [5] the following is noted: 37°C, Western blot.
Procedure: (§1) At different times, aliquots of samples were diluted 1:5 in sample buffer (12% SDS, 6% dithiothreitol, 40% glycerol, 0.05% bromophenol blue, 150 mM Tris-HCl, pH 7), incubated for 15 min at 60°C and analyzed on a 16% Tricine/SDS gel. Proteins were then blotted onto nitrocellulose membrane (Whatman), and incubated overnight with shaking at 4°C in 40 mM Tris-HCl, pH 7.5, 5% non-fat milk, 0.05% Tween 20, 200 mM NaCl (blocking solution). Samples were incubated for 90 min with 1:1000 rabbit anti-Bac7(1-35) IgG, diluted in blocking solution, followed by a HRP-conjugated anti-rabbit IgG (Sigma-Aldrich). The ECL detection system (GE Healthcare) was used to develop the Western blots.
The conditions of data set [6]: 37°C, several days of incubation.
Procedure: as §1
Data set [7] concerns E. coli infection; S. typhimurium disease. Details: method as in 2 sources, one per row (each row's own in cited_ref): ref 8 = [8]; PMID 12222961; doi:10.1007/s00018-002-8493-8; Otvos L The short proline-rich antibacterial peptide family Cell Mol Life Sci 2002 59 7 1138 1150 10.1007/s00018-002-8493-8 12222961 PMC11337521 ||| ref 22 = [22]; PMID 2934362; doi:10.1093/jac/16.5.615; Easmon CS Blowers A Ciprofloxacin treatment of systemic salmonella infection in sensitive and resistance mice J Antimicrob Chemother 1985 16 5 615 619 10.1093/jac/16.5.615 2934362. The following applies: Balb/c mice; cited from earlier work. How it is done:
As a first step to evaluate the therapeutic potential of Bac7(1-35), its in vivo toxicity was determined in Balb/c and CBA/Ca mice after injection via i.p. of increasing single peptide doses. […] For ... || The potential of Bac7(1-35) to protect mice from a bacterial challenge was tested by a mouse model of Salmonella infection. Infected mice develop a systemic disease characterized by rapid bacterial multiplication in the liver and spleen that resembles typhoid fever caused by Salmonella serovar Typhi in humans.

Where a SMILES comes first, the peptide text is derived from it. Where no end group is shown, it is not given here.

Regarding “Drosocin: insect proline-rich AMP (GKPRPYSPRPTSHPRPIRV; ends and bridges not checked; UniProt P36193 22-40, looked up)”, the “dose at which completely devoid of toxicity” value in the data set on healthy animals / mice is listed as 100 mg/kg.
With “Bac7(1-35)-Alexa680: derivative of Bac7(1-35) fluorescently labelled with the dye Alexa680 via an added C-terminal cysteine (RRIRPRPPRLPRPRPRPLPFPRPGPRPIPRPLPFP-{C(Alexa Fluor 680 C2-maleimide)}; UniProt P19661 131-165, looked up, fragment)”, the “antimicrobial activity relative to the unlabelled peptide” value in data set [1] is listed as “comparable”.
In the case of `CC[C@H](C)[C@H](NC(=O)[C@H](CCCNC(=N)N)NC(=O)[C@@H](N)CCCNC(=N)N)C(=O)N[C@@H](CCCNC(=N)N)C(=O)N1CCC[C@H]1C(=O)N[C@@H](CCCNC(=N)N)C(=O)N1CCC[C@H]1C(=O)N1CCC[C@H]1C(=O)N[C@@H](CCCNC(=N)N)C(=O)N[C@@H](CC(C)C)C(=O)N1CCC[C@H]1C(=O)N[C@@H](CCCNC(=N)N)C(=O)N1CCC[C@H]1C(=O)N[C@@H](CCCNC(=N)N)C(=O)N1CCC[C@H]1C(=O)N[C@@H](CCCNC(=N)N)C(=O)N1CCC[C@H]1C(=O)N[C@@H](CC(C)C)C(=O)N1CCC[C@H]1C(=O)N[C@@H](Cc1ccccc1)C(=O)N1CCC[C@H]1C(=O)N[C@@H](CCCNC(=N)N)C(=O)N1CCC[C@H]1C(=O)NCC(=O)N1CCC[C@H]1C(=O)N[C@@H](CCCNC(=N)N)C(=O)N1CCC[C@H]1C(=O)N[C@H](C(=O)N1CCC[C@H]1C(=O)N[C@@H](CCCNC(=N)N)C(=O)N1CCC[C@H]1C(=O)N[C@@H](CC(C)C)C(=O)N1CCC[C@H]1C(=O)N[C@@H](Cc1ccccc1)C(=O)N1CCC[C@H]1C(=O)O)[C@@H](C)CC` [Bac7(1-35)] (H-RRIRPRPPRLPRPRPRPLPFPRPGPRPIPRPLPFP-OH; N-terminus and C-terminus assumed), the “reduction of the number of CFU” value in data set [2] (in the absence of serum/plasma) is given as 2.5 log; in [2] (with 66% murine serum or plasma, approx. 1 × 10^6 cells/ml, three independent determinations in triplicate) it was 0.5-1 log. The “bactericidal activity upon addition of BSA” value in [2] (40 mg/mL BSA, data not shown) is “did not change”. Also, in [2] (without the presence of plasma/serum, 1 h), the “peptide concentration giving a CFU reduction comparable to 10 μM in serum/plasma” value was 1 µM. The “degradation process in plasma relative to serum” value in the data set “in vitro” (25% (v/v) murine plasma in PBS, 37°C, LC-MS) is “slower in plasma than in serum”. In “in vitro” (25% (v/v) murine serum in PBS, 37°C, 8 h incubation, LC-MS), the “state of the peptide after 8 h” value was “almost completely degraded”. The compound also returned a metabolised at 1 h, 200 μg/mL in “in vitro” (mouse, 25% (v/v) murine serum in PBS) of 10%. Also, the “dose at which mice died” value with Balb/c and CBA/Ca mice (highest dose) was found to be 150 mg/kg. The “dose with no apparent toxic effect” value in the data set with Balb/c and CBA/Ca mice (monitored over 14 days) was “up to 75 mg/kg”. Moreover, the mean survival time in data set [3] (30 mg/kg i.p. after i.p. challenge with 1 × 10^2 CFU/mouse, 60 days monitoring, control 10 days, p = 0.01) stood at 24.5 days. For the same compound, in data set [3] (30 mg/kg i.p., 60 days, untreated 0%, p = 0.04), the “infected mice completely cured (survival)” value is listed as 36%. Moreover, the “fraction of animals with bacteria undetectable in both spleen and liver” value in [4] was 1/3. The “number of viable bacterial cells in liver and spleen homogenates” value in data set [4] (CBA/Ca mice) was “decreased significantly”. In data set [5] (25% (v/v) murine plasma in PBS, up to 24 h), the “degradation in plasma relative to serum (immunodetection)” value is on record as “slower”. Also, the “band corresponding to intact peptide (immunodetection)” value in data set [5] (25% (v/v) murine serum in PBS, 24 h incubation, 120 μg in 200 μL) was “disappeared”. The “peptide degradation in PBS alone” value in data set [6] is on record as “no peptide degradation was observed”.
As for `O=C(O)c1cn(C2CC2)c2cc(N3CCNCC3)c(F)cc2c1=O` [ciprofloxacin], the “prevention of fatal S. typhimurium disease” value in data set [7] was “failed to prevent”.

The values are drawn from publication PMC2896951, “The proline-rich peptide Bac7(1-35) reduces mortality from Salmonella typhimurium in a mouse model of infection” (BMC Microbiology, 2010).
